Data: patent publication US9096560B2, “5-heterocyclylalkyl-3-hydroxy-2-phenylcyclopent-2-enones as herbicides” (Syngenta Limited, priority 2008, dated 2015)

How the values were obtained:
Type in all cases: in vivo
Avena fatua (AVEFA) [1] = test: Example B post-emergence herbicidal test, AVEFA; conditions: rate 250 g/ha, evaluated after 13 days; for pest or weed control at 250 g/ha: Avena fatua, 312 h, scale 0-100, read-out: Post-emergence activity AVEFA (100=total damage to plant; 0=no damage to plant)
Method: (§1) Seeds of a variety of test species were sown in standard soil in pots. After cultivation for one day (pre-emergence) or after 8 days cultivation (post-emergence) under controlled conditions in a glasshouse (at 24/16° C., day/night; 14 hours light; 65% humidity), the plants were sprayed with an aqueous spray solution derived from the formulation of the technical active ingredient in acetone/water (50:50) solution containing 0.5% Tween 20 (polyoxyethelyene sorbitan monolaurate, CAS RN 9005-64-5). The test plants were then grown in a glasshouse under controlled conditions in a glasshouse (at 24/16° C., day/night; 14 hours light; 65% humidity) and watered twice daily. After 13 days for pre and post-emergence, the test was evaluated (100=total damage to plant; 0=no damage to plant). Lolium perenne (LOLPE), Alopecurus myosuroides (ALOMY), Echinochloa crus-galli (ECHCG), Avena fatua (AVEFA) Post-Emergence Activity

Lolium perenne (LOLPE) [2] = test: Example B post-emergence herbicidal test, LOLPE; conditions: rate 250 g/ha, evaluated after 13 days; for pest or weed control at 250 g/ha: Lolium perenne, 312 h, scale 0-100, read-out: Post-emergence activity LOLPE (100=total damage to plant; 0=no damage to plant)
Method: as §1

[3] = test system: Echinochloa crus-galli (ECHCG); test: Example B pre-emergence herbicidal test, ECHCG; conditions: rate 250 g/ha, evaluated after 13 days, 100=total damage to plant, 0=no damage to plant; for pest or weed control at 250 g/ha: Echinochloa crus-galli, 312 h
Method: as §1, with “Pre-Emergence” for “Post-Emergence”

[4] = test system: Alopecurus myosuroides (ALOMY); test: Example B post-emergence herbicidal test, ALOMY; conditions: rate 250 g/ha, evaluated after 13 days; for pest or weed control at 250 g/ha: Alopecurus myosuroides, 312 h, scale 0-100, read-out: Post-emergence activity ALOMY (100=total damage to plant; 0=no damage to plant)
Method: as §1

Avena fatua (AVEFA) [5] = test: Example B pre-emergence herbicidal test, AVEFA; conditions: rate 250 g/ha, evaluated after 13 days, 100=total damage to plant, 0=no damage to plant; for pest or weed control at 250 g/ha: Avena fatua, 312 h
Method: as §1, with “Pre-Emergence” for “Post-Emergence”

[6] = test system: Alopecurus myosuroides (ALOMY); test: Example B pre-emergence herbicidal test, ALOMY; conditions: rate 250 g/ha, evaluated after 13 days, 100=total damage to plant, 0=no damage to plant; for pest or weed control at 250 g/ha: Alopecurus myosuroides, 312 h
Method: as §1, with “Pre-Emergence” for “Post-Emergence”

[7] = test system: Echinochloa crus-galli (ECHCG); test: Example B post-emergence herbicidal test, ECHCG; conditions: rate 250 g/ha, evaluated after 13 days; for pest or weed control at 250 g/ha: Echinochloa crus-galli, 312 h, scale 0-100, read-out: Post-emergence activity ECHCG (100=total damage to plant; 0=no damage to plant)
Method: as §1

Lolium perenne (LOLPE) [8] = test: Example B pre-emergence herbicidal test, LOLPE; conditions: rate 250 g/ha, evaluated after 13 days, 100=total damage to plant, 0=no damage to plant; for pest or weed control at 250 g/ha: Lolium perenne, 312 h
Method: as §1, with “Pre-Emergence” for “Post-Emergence”

SMILES	pest or weed control at 250 g/ha (Avena fatua (AVEFA) [1]) [%]	pest or weed control at 250 g/ha (Lolium perenne (LOLPE) [2]) [%]	pest or weed control at 250 g/ha [3] [%]	pest or weed control at 250 g/ha [4] [%]	pest or weed control at 250 g/ha (Avena fatua (AVEFA) [5]) [%]	pest or weed control at 250 g/ha [6] [%]	pest or weed control at 250 g/ha [7] [%]	pest or weed control at 250 g/ha (Lolium perenne (LOLPE) [8]) [%]	Post-Emergence Activity AVEFA (100=total damage to plant; 0=no damage to plant) (Avena fatua (AVEFA) [1]; scale 0-100)	Post-Emergence Activity LOLPE (100=total damage to plant; 0=no damage to plant) (Lolium perenne (LOLPE) [2]; scale 0-100)	Pre-emergence activity ECHCG (damage to plant) [3]	Post-Emergence Activity ALOMY (100=total damage to plant; 0=no damage to plant) ([4]; scale 0-100)	Pre-emergence activity AVEFA (damage to plant) (Avena fatua (AVEFA) [5])	Pre-emergence activity ALOMY (damage to plant) [6]	Post-Emergence Activity ECHCG (100=total damage to plant; 0=no damage to plant) ([7]; scale 0-100)	Pre-emergence activity LOLPE (damage to plant) (Lolium perenne (LOLPE) [8])
Cc1cc(C)c(C2=C(OC(=O)c3c(C)noc3C)CC(CC3CCN(C(=O)c4c(C)noc4C)C3)C2=O)c(C)c1 (stereo not drawn) [Compound P63]	90	80	70	90	40	50	70	70								
Cc1cc(C)c(C2=C(OC(=O)c3ccc(Cl)nc3)CC(CC3CCN(C(=O)c4ccc(Cl)nc4)C3)C2=O)c(C)c1 (stereo not drawn) [Compound P64]	100	90	80	100	70	70	90	80								
CCC(=O)OC1=C(c2c(C)cc(C)cc2C)C(=O)C(CC2CCN(C(=O)CC)CC2)C1 (stereo not drawn) [Compound P65]	90	90	80	90	60	60	90	90								
Cc1cc(C)c(C2=C(O)CC(CC3CCOCC3)C2=O)c(C)c1 (stereo not drawn) [Compound P67]	100	100	90	100	90	80	100	100								
Cc1cc(C)c(C2=C(O)CC(CC3CCOCC3)C2=O)c(C)c1 (stereo not drawn) [Compound P68]									90	100	100	90	90	90	100	100
COc1ccc(C(=O)OC2=C(c3c(C)cc(C)cc3C)C(=O)CC2CC2CCOC2)cc1 (stereo not drawn) [Compound P71]	90	100	100	100	100	90	100	100								
Cc1cc(C)c(C2C(=O)CC(C(O)C3CCOCC3)C2=O)c(C)c1 (stereo not drawn) [Compound T3]	70	70	20	40	50	50	70	60								
Cc1cc(C)c(C2C(=O)CC(CC3CCS(=O)(=O)CC3)C2=O)c(C)c1 (stereo not drawn) [Compound T7]	90	80	100	100	50	70	90	80								
Cc1cc(C)c(C2C(=O)C/C(=C\C3CCSCC3)C2=O)c(C)c1 (stereo not drawn) [Compound T9]	30	80	20	60	0	20	80	60								
Cc1cc(C)c(C2C(=O)C/C(=C\C3CC[S+]([O-])CC3)C2=O)c(C)c1 (stereo not drawn) [Compound T11]	30	50	20	60	0	30	70	70								
Cc1cc(C)c(C2C(=O)C/C(=C\C3CCN(Cc4ccccc4)CC3)C2=O)c(C)c1 (stereo not drawn) [Compound T13]	0	30	10	10	0	30	40	30								
CC(=O)N1CCC(/C=C2\CC(=O)C(c3c(C)cc(C)cc3C)C2=O)CC1 (stereo not drawn) [Compound T15]	100	100	100	100	100	70	100	100								
Cc1cc(C)c(C2C(=O)CC(CC3CCCO3)C2=O)c(C)c1 (stereo not drawn) [Compound T18]	70	100	100	80	70	100	90	100								
Cc1cc(C)c(C2C(=O)CC(CCC3CCOCC3)C2=O)c(C)c1 (stereo not drawn) [Compound T21]	90	90	90	90	70	100	80	100								
CON1CCC(CC2CC(=O)C(c3c(C)cc(C)cc3C)C2=O)CC1 (stereo not drawn) [Compound T23]	100	100	100	90	100	100	100	100								
CC(=O)N1CCC(CC2CC(=O)C(c3c(C)cc(C)cc3C)C2=O)CC1 (stereo not drawn) [Compound T24]	100	100	100	90	90	100	100	100								
Cc1cc(C)c(C2C(=O)CC(CC3CCC(C)O3)C2=O)c(C)c1 (stereo not drawn) [Compound T26]	70	80	100	60	60	70	60	100								
Cc1cc(C)c(C2C(=O)CC(C)(C(O)C3CCOCC3)C2=O)c(C)c1 (stereo not drawn) [Compound T27]	70	80	80	70	60	90	80	100								
